From patent US20240376097A1, “BCL-2 Inhibitor” (BeiGene Ltd., priority 2020, published 2024) come the findings set out here.

In assay [1] the target is Recombinant human Bcl-2 protein (Homo sapiens (Human), UniProt P10415). The assay is described as follows: Bcl-2 TR-FRET Assay. The assay is classed as binding. The following applies: Bcl-2 wild type, TR-FRET; read-out: Biochemical assay (IC50, nM) Bcl-2 WT. The gist of the method:
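0.05 nM recombinant Bcl-2 preincubated 0.5 h at room temperature with 10-point compound dilutions (top final 1, 0.1, 0.02 or 0.01 uM) in pH 7.5 phosphate buffer. FITC-Bak peptide (0.5 nM) and anti-6His Tb cryptate then added for 1 h. TR-FRET read; IC50 from four-parameter logistic fit.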

Assay [2] has as its target recombinant human Bcl-2-G101V protein (Homo sapiens (Human), UniProt P10415, G101V). The assay can be described thus: Bcl-2-G101V TR-FRET Assay. The following applies: Bcl-2 G101V mutant, TR-FRET; read-out: Biochemical assay (IC50, nM) Bcl-2 G101V. The assay is classed as binding. The gist of the method: (§1)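 Percent inhibition of the Bcl-2-G101V–ligand interaction was computed from the 490 nm to 520 nm emission ratio after 337 nm excitation, over increasing compound concentrations; a four-parameter logistic fit gave IC50.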
(In general: In TR-FRET formats the signal depends on donor and acceptor labels being close together.)

For assay [3], the system named is recombinant human Bcl-2-G101V protein. The assay is described as follows: Bcl-2-G101V TR-FRET Assay. The assay is classed as binding. The following applies: ratio of biochemical IC50 Bcl-2 G101V / Bcl-2 WT. The gist of the method: as §1
The test system of assay [4] is RS4;11 (BCL-2 dependent acute lymphoblastic leukemia cell line). The assay can be described thus: RS4;11 Cell Proliferation Assay. The assay is classed as cell-based. The following applies: Homo sapiens, RS4-11, RS4;11 cells, read-out: Cellular proliferation assay (IC50, nM) RS4. An outline of the steps: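 RS4;11 cells, 50,000 per well in RPMI-1640 with 10% FBS, treated 48 h at 37 °C with a 10-point dilution series topping at 1 μM. Viability read by CellTiter-Glo ATP luminescence; mean IC50 reported.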

In assay [5] the test system is BCL-2 G101V knock-in cell line H96 (derive from RS4;11). The assay is described as follows: Bcl 2-G101V Knock-In RS4;11 Cell Proliferation Assay. The assay is classed as cell-based. Conditions: Homo sapiens, RS4;11 Bcl-2 G101V knock-in clone H96, 48 hrs, CellTiter-GLO, read-out: Cellular proliferation assay (IC50, nM) RS4. The gist of the method: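 H96, a CRISPR-generated RS4;11 clone carrying BCL2-G101V knock-in (WES/RNA-seq validated), seeded 50,000 per well and exposed 48 h at 37 °C to 10-point dilutions topping at 1 or 10 μM. Viability by CellTiter-Glo luminescence; mean IC50.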
(In general: ATP-based viability assays read luminescence as a measure of living cells.)

Take `COc1cc(CN2CCN(C3CC4(C3)CN(c3ccc(C(=O)NS(=O)(=O)c5ccc(NC[C@H]6CC[C@](C)(O)CC6)c([N+](=O)[O-])c5)c(Oc5cnc6[nH]ccc6c5)c3)C4)[C@H](c3ccccc3C(C)C)C2)ccc1C1CCC1` [Example 342, 2-((1H-pyrrolo[2,5-b]pyridin-5-yl)oxy)-4-(6-((R)-4-(4-cyclobutyl-3-methoxybenzyl)-2-(2-isopropylphenyl)piperazin-1-yl)-2-azaspiro[3.3]heptan-2-yl)-N-((4-((((1r,4r)-4-hydroxy-4-methylcyclohexyl)methyl)amino)-3-nitrophenyl)sulfonyl)benzamide]: the IC50 in assay [1] worked out at 0.97 nM; in assay [2] it was 3.3 nM; in assay [4], 0.28 nM; in assay [5], 2 nM. In addition, the “Ratio of Bcl-2 G101V/WT” value in assay [3] was determined as 2.9.
As for `COc1cc(CN2CCN(C3CC4(CCN(c5ccc(C(=O)NS(=O)(=O)c6ccc(NC[C@H]7CC[C@](C)(O)CC7)c([N+](=O)[O-])c6)c(Oc6cnc7[nH]ccc7c6)c5)CC4)C3)C(c3ccccc3C(C)C)C2)cc(F)c1OC` (stereo partly shown) [Example 152, 2-((1H-pyrrolo[2,3-b]pyridin-5-yl)oxy)-4-(2-(4-(3-fluoro-4,5-dimethoxybenzyl)-2-(2-isopropylphenyl)piperazin-1-yl)-7-azaspiro[3.5]nonan-7-yl)-N-((4-((((1r,4r)-4-hydroxy-4-methylcyclohexyl)methyl)amino)-3-nitrophenyl)sulfonyl)benzamide], the IC50 in assay [1] amounted to 0.25 nM; in assay [2], 0.89 nM; in assay [4], 0.35 nM; in assay [5] it was 1.31 nM. The “Ratio of Bcl-2 G101V/WT” value in assay [3] is given as 3.5.
`CC(C)c1ccccc1[C@@H]1CN(Cc2ccnc3c2OC(C)(C)CO3)CCN1C1CC2(C1)CN(c1ccc(C(=O)NS(=O)(=O)c3ccc(NC[C@H]4CC[C@](C)(O)CC4)c([N+](=O)[O-])c3)c(Oc3cnc4[nH]cc(F)c4c3)c1)C2` [Example 313, 4-(6-((R)-4-((2,2-dimethyl-2,3-dihydro-[1,4]dioxino[2,3-b]pyridin-8-yl)methyl)-2-(2-isopropylphenyl)piperazin-1-yl)-2-azaspiro[3.3]heptan-2-yl)-2-((3-fluoro-1H-pyrrolo[2,3-b]pyridin-5-yl)oxy)-N-((4-((((1r,4r)-4-hydroxy-4-methylcyclohexyl)methyl)amino)-3-nitrophenyl)sulfonyl)benzamide]: the IC50 came out at 0.048 nM in assay [1], 0.19 nM in assay [2], 0.18 nM in assay [4] and 0.4 nM in assay [5]. The “Ratio of Bcl-2 G101V/WT” value in assay [3] came out at 3.9.
Turning to `CC(C)c1ccccc1C1CN(Cc2ccc(C3CC3)cc2)CCN1C1CC2(CCN(c3ccc(C(=O)NS(=O)(=O)c4ccc(NC[C@H]5CC[C@](C)(O)CC5)c([N+](=O)[O-])c4)c(Oc4cnc5[nH]cc(F)c5c4)c3)CC2)C1` (stereo partly shown) [Example 160, 4-(2-(4-(4-cyclopropylbenzyl)-2-(2-isopropylphenyl)piperazin-1-yl)-7-azaspiro[3.5]nonan-7-yl)-2-((3-fluoro-1H-pyrrolo[2,3-b]pyridin-5-yl)oxy)-N-((4-((((1r,4r)-4-hydroxy-4-methylcyclohexyl)methyl)amino)-3-nitrophenyl)sulfonyl) benzamide], the IC50 amounted to 1.2 nM in assay [1], 6 nM in assay [2], 0.564 nM in assay [4] and 2.87 nM in assay [5]. The “Ratio of Bcl-2 G101V/WT” value in assay [3] came out at 5.
As to `CC(C)c1ccccc1[C@@H]1CN(Cc2ccc3c(c2)OCC3(C)C)CCN1C1CC2(CCN(c3ccc(C(=O)NS(=O)(=O)c4ccc(NC[C@H]5CC[C@](C)(O)CC5)c([N+](=O)[O-])c4)c(Oc4cnc5[nH]cc(F)c5c4)c3)CC2)C1` [Example 308, 4-(2-((R)-4-((3,3-dimethyl-2,3-dihydrobenzofuran-6-yl)methyl)-2-(2-isopropylphenyl)piperazin-1-yl)-7-azaspiro[3.5]nonan-7-yl)-2-((3-fluoro-1H-pyrrolo[2,3-b]pyridin-5-yl)oxy)-N-((4-((((1r,4r)-4-hydroxy-4-methylcyclohexyl)methyl)amino)-3-nitrophenyl)sulfonyl)benzamide], the IC50 in assay [1] amounted to 0.67 nM; in assay [2], 3.11 nM; in assay [4], 0.58 nM; in assay [5] it was 3.95 nM. Moreover, in assay [3], the “Ratio of Bcl-2 G101V/WT” value is 4.6.
Turning to `CC(C)c1ccccc1C1CN(S(C)(=O)=O)CCN1C1CC2(CCN(c3ccc(C(=O)NS(=O)(=O)c4ccc(NC[C@H]5CC[C@](C)(O)CC5)c([N+](=O)[O-])c4)c(Oc4cnc5[nH]ccc5c4)c3)CC2)C1` (stereo partly shown) [Example 66, 2-((1H-pyrrolo[2,3-b]pyridin-5-yl)oxy)-N-((4-((((1r,4r)-4-hydroxy-4-methylcyclohexyl)methyl)amino)-3-nitrophenyl)sulfonyl)-4-(2-(2-(2-isopropylphenyl)-4-(methylsulfonyl)piperazin-1-yl)-7-azaspiro[3.5]nonan-7-yl) benzamide], the IC50 in assay [1] was 0.034 nM; in assay [2], 1.6 nM; in assay [4], 0.6 nM; in assay [5] it was 6.61 nM. The “Ratio of Bcl-2 G101V/WT” value in assay [3] is 47.1.
For `COc1cc(CN2CCN(C3CC4(CCN(c5ccc(C(=O)NS(=O)(=O)c6ccc(NC[C@H]7CC[C@](C)(O)CC7)c([N+](=O)[O-])c6)c(Oc6cnc7[nH]ccc7c6)c5)CC4)C3)[C@H](c3ccccc3C(C)C)C2)ccc1C(C)C` [Example 263, 2-((1H-pyrrolo[2,3-b]pyridin-5-yl)oxy)-N-((4-((((1r,4r)-4-hydroxy-4-methylcyclohexyl)methyl)amino)-3-nitrophenyl)sulfonyl)-4-(2-((R)-4-(4-isopropyl-3-methoxybenzyl)-2-(2-isopropylphenyl)piperazin-1-yl)-7-azaspiro[3.5]nonan-7-yl) benzamide], the IC50 in assay [1] stood at 1.3 nM; in assay [2], 4.9 nM; in assay [4], 0.18 nM; in assay [5], 1.01 nM. Also, the “Ratio of Bcl-2 G101V/WT” value in assay [3] is on record as 3.9.
With `[2H]C([2H])([2H])Oc1ccc(CN2CCN(C3CC4(CCN(c5ccc(C(=O)NS(=O)(=O)c6ccc(NC[C@H]7CC[C@](C)(O)CC7)c([N+](=O)[O-])c6)c(Oc6cnc7[nH]ccc7c6)c5)CC4)C3)[C@H](c3ccccc3C(C)C)C2)cc1OC([2H])([2H])[2H]` [Example 253, 2-((1H-pyrrolo[2,3-b]pyridin-5-yl)oxy)-4-(2-((R)-4-(3,4-bis(methoxy-d3)benzyl)-2-(2-isopropylphenyl)piperazin-1-yl)-7-azaspiro[3.5]nonan-7-yl)-N-((4-((((1r,4r)-4-hydroxy-4-methylcyclohexyl)methyl)amino)-3-nitrophenyl)sulfonyl)benzamide], the IC50 in assay [1] was determined as 0.027 nM; in assay [2] it was 0.089 nM; in assay [4] it was 0.11 nM; in assay [5], 0.29 nM. The “Ratio of Bcl-2 G101V/WT” value in assay [3] worked out at 3.3.
As for `CC(C)c1ccccc1[C@@H]1CN(Cc2ccc(F)c(F)c2)CCN1C1CC2(C1)CN(c1ccc(C(=O)NS(=O)(=O)c3ccc(NC[C@H]4CC[C@](C)(O)CC4)c([N+](=O)[O-])c3)c(Oc3cnc4[nH]ccc4c3)c1)C2` [Example 244, 2-((1H-pyrrolo[2,3-b]pyridin-5-yl)oxy)-4-(6-((R)-4-(3,4-difluorobenzyl)-2-(2-isopropylphenyl)piperazin-1-yl)-2-azaspiro[3.3]heptan-2-yl)-N-((4-((((1r,4r)-4-hydroxy-4-methylcyclohexyl)methyl)amino)-3-nitrophenyl)sulfonyl)benzamide], the IC50 in assay [1] worked out at 0.25 nM; in assay [2], 0.83 nM; in assay [4], 0.2 nM; in assay [5], 1.36 nM. The “Ratio of Bcl-2 G101V/WT” value in assay [3] stood at 3.3.
In the case of `CC(C)c1ccccc1[C@@H]1CN(Cc2ccc(N3CCOCC3)cc2)CCN1C1CC2(C1)CN(c1ccc(C(=O)NS(=O)(=O)c3ccc(NC[C@H]4CC[C@](C)(O)CC4)c([N+](=O)[O-])c3)c(Oc3cnc4[nH]cc(F)c4c3)c1)C2` [Example 368], the IC50 worked out at 0.064 nM in assay [1], 0.29 nM in assay [2], 0.096 nM in assay [4] and 0.24 nM in assay [5]. Also, the “Ratio of Bcl-2 G101V/WT” value in assay [3] is on record as 4.5.
With `CC(C)c1ccccc1[C@@H]1CN(Cc2ccc3c(c2)OCC3)CCN1C1CC2(C1)CN(c1ccc(C(=O)NS(=O)(=O)c3ccc(NC[C@H]4CC[C@](C)(O)CC4)c([N+](=O)[O-])c3)c(Oc3cnc4[nH]ccc4c3)c1)C2` [Example 298, 2-((1H-pyrrolo[2,3-b]pyridin-5-yl)oxy)-4-(6-((R)-4-((2,3-dihydrobenzofuran-6-yl)methyl)-2-(2-isopropylphenyl)piperazin-1-yl)-2-azaspiro[3.3]heptan-2-yl)-N-((4-((((1r,4r)-4-hydroxy-4-methylcyclohexyl)methyl)amino)-3-nitrophenyl)sulfonyl)benzamide], the IC50 in assay [1] turned out to be 0.099 nM; in assay [2], 0.45 nM; in assay [4], 0.24 nM; in assay [5], 1.82 nM. The “Ratio of Bcl-2 G101V/WT” value in assay [3] is on record as 4.6.
